Legend:
[1] = target: Leukotriene B4 receptor 1 (Homo sapiens) (UniProt Q15722); test: Inhibition of human LTB4 receptor at 10 uM by CEREP assay
[2] = target: Cholecystokinin receptor type A (Homo sapiens) (UniProt P32238); test: Inhibition of human CCKA receptor at 10 uM by CEREP assay
[3] = target: 5-hydroxytryptamine receptor 1A (Homo sapiens, UniProt P08908); test: Inhibition of human 5-HT1A receptor by CEREP assay
[4] = Inhibition of central BZD receptor at 10 uM by CEREP assay
[5] = Inhibition of alpha 2 adrenergic receptor at 10 uM by CEREP assay
[6] = target: MAO-B (amine oxidase [flavin-containing] B) (Homo sapiens, UniProt P27338); test: Inhibition of human MAO-B at 10 uM by CEREP assay
[7] = target: Corticotropin-releasing factor receptor 1 (Homo sapiens) (UniProt P34998); test: Inhibition of human CRF1 receptor at 10 uM by CEREP assay
[8] = target: Mu-type opioid receptor (Homo sapiens) (UniProt P35372); test: Inhibition of human MOP receptor at 10 uM by CEREP assay
[9] = target: 5-hydroxytryptamine receptor 1A (Homo sapiens) (UniProt P08908); test: Inhibition of human 5-HT1A receptor at 10 uM by CEREP assay
[10] = Inhibition of K+v channel at 10 uM by CEREP assay
[11] = target: Sodium-dependent serotonin transporter (Homo sapiens) (UniProt P31645); test: Inhibition of human 5-HT transporter at 10 uM by CEREP assay
[12] = species on record: Homo sapiens; test: Inhibition of human Choline transporter at 10 uM by CEREP assay
[13] = target: Adenosine receptor A1 (Homo sapiens) (UniProt P30542); test: Inhibition of human A1 receptor at 10 uM by CEREP assay
[14] = target: Pituitary adenylate cyclase-activating polypeptide type I receptor (Homo sapiens) (UniProt P41586); test: Inhibition of human PAC1 receptor at 10 uM by CEREP assay
[15] = target: D(3) dopamine receptor (Homo sapiens) (UniProt P35462); test: Inhibition of human D3 receptor at 10 uM by CEREP assay
[16] = Inhibition of P2Y receptor at 10 uM by CEREP assay
[17] = target: C-X-C chemokine receptor type 4 (Homo sapiens) (UniProt P61073); test: Inhibition of human CXCR4 receptor at 10 uM by CEREP assay
[18] = target: Melanocyte-stimulating hormone receptor (Homo sapiens) (UniProt Q01726); test: Inhibition of MC1 receptor at 10 uM by CEREP assay
[19] = target: Phosphodiesterase 3 (Homo sapiens) (UniProt Q14432+Q13370); test: Inhibition of human PDE3 at 10 uM by CEREP assay; format: protein assay
[20] = target: D(1B) dopamine receptor (Homo sapiens) (UniProt P21918); test: Inhibition of human D5 receptor at 10 uM by CEREP assay
[21] = Inhibition of Adenylyl cyclase at 10 uM by CEREP assay
[22] = target: Cannabinoid receptor 1 (Homo sapiens) (UniProt P21554); test: Inhibition of human CB1 receptor at 10 uM by CEREP assay
[23] = target: C-C chemokine receptor type 2 (Homo sapiens) (UniProt P41597); test: Inhibition of human CCR2 receptor at 10 uM by CEREP assay
[24] = Inhibition of Na+ channel site 2 at 10 uM by CEREP assay
[25] = target: Vasoactive intestinal polypeptide receptor 1 (Homo sapiens) (UniProt P32241); test: Inhibition of human VIP1 receptor at 10 uM by CEREP assay
[26] = target: Phenylethanolamine N-methyltransferase (Homo sapiens) (UniProt P11086); test: Inhibition of PNMT at 10 uM by CEREP assay
[27] = Inhibition of L-type Ca2+ channel DHP site at 10 uM by CEREP assay
[28] = Inhibition of Guanylyl cyclase at 10 uM by CEREP assay
[29] = target: Muscarinic acetylcholine receptor M4 (Homo sapiens) (UniProt P08173); test: Inhibition of human M4 receptor at 10 uM by CEREP assay
[30] = Inhibition of NMDA receptor PCP site at 10 uM by CEREP assay
[31] = Half life in rat at 10 mg/kg, po; format: ADME, organism-based; parameters: dose 10 mg/kg, route oral; conditions: in vivo
[32] = target: C5a anaphylatoxin chemotactic receptor 1 (Homo sapiens) (UniProt P21730); test: Inhibition of human C5a receptor at 10 uM by CEREP assay
[33] = target: Substance-P receptor (Homo sapiens) (UniProt P25103); test: Inhibition of human Nk1 receptor at 10 uM by CEREP assay
[34] = target: Muscarinic acetylcholine receptor M2 (Homo sapiens) (UniProt P08172); test: Inhibition of human M2 receptor at 10 uM by CEREP assay
Chain of Muscarinic acetylcholine receptor M2 (Homo sapiens) (P08172 whole entry): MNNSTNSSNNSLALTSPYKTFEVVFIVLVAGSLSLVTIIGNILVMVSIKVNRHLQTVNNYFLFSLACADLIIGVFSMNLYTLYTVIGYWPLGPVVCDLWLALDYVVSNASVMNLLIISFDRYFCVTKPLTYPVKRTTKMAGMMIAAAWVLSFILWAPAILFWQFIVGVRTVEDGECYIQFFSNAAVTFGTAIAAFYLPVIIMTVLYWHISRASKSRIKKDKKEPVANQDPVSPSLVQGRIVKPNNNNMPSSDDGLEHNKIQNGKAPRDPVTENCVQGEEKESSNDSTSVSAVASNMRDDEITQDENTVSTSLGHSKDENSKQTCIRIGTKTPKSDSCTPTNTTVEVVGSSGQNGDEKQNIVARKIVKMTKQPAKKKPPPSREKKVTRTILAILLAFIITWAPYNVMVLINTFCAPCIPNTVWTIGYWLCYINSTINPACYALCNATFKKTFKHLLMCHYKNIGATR

Chain of C5a anaphylatoxin chemotactic receptor 1 (Homo sapiens) (P21730 whole entry): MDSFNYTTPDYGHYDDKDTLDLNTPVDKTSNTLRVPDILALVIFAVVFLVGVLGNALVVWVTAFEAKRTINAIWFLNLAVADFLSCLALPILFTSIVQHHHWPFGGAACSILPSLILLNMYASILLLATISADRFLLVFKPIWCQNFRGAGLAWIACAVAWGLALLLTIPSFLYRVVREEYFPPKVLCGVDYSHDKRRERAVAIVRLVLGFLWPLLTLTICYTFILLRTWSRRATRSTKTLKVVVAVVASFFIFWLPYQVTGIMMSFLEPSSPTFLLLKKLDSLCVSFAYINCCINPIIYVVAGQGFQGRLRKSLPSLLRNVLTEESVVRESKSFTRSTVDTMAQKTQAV
Chain of C-C chemokine receptor type 2 (Homo sapiens) (P41597 whole entry, looked up): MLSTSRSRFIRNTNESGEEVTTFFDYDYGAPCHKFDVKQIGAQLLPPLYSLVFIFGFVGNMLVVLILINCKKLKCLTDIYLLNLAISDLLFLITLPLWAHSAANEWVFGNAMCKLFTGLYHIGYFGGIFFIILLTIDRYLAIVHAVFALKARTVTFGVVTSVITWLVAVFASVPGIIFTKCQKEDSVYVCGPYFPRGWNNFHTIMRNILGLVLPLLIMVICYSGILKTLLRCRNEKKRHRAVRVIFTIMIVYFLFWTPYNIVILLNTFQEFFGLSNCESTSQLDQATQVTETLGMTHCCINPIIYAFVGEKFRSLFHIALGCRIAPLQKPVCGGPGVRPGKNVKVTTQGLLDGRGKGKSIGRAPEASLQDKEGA
Chain of Pituitary adenylate cyclase-activating polypeptide type I receptor (Homo sapiens) (P41586 21-468 limits assumed): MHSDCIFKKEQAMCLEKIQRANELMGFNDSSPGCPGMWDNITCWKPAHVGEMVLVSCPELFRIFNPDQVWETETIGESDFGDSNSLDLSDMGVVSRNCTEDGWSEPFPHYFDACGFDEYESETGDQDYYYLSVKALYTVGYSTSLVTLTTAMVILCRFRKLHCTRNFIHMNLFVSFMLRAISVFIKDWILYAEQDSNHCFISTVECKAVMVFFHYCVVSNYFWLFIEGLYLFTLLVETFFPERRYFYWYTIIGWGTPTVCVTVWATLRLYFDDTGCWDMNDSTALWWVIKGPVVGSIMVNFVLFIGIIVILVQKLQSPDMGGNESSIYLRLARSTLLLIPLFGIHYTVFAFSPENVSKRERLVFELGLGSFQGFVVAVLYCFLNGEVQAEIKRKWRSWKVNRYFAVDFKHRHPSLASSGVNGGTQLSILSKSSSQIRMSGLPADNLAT
Chain of Leukotriene B4 receptor 1 (Homo sapiens) (Q15722 whole entry): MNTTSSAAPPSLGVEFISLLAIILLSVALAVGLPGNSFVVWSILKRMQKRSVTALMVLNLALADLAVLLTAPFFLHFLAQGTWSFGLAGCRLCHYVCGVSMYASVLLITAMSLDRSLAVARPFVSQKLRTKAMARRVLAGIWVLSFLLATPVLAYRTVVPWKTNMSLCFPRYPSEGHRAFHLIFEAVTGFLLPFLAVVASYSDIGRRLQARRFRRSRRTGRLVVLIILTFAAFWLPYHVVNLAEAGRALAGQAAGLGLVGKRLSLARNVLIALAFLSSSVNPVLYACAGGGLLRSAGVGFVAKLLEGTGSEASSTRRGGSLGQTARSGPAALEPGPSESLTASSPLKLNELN
Chain of C-X-C chemokine receptor type 4 (Homo sapiens) (P61073 whole entry): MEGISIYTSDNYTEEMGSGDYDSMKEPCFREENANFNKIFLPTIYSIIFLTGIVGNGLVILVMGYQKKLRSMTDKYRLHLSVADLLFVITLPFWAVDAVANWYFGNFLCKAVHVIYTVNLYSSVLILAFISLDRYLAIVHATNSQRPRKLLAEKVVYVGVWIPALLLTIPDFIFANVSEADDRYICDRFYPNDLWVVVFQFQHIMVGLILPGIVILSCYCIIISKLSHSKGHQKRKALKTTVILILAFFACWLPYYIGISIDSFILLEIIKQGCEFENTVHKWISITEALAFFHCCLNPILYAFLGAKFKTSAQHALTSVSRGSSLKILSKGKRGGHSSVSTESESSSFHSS
Chain of Vasoactive intestinal polypeptide receptor 1 (Homo sapiens) (P32241 whole entry): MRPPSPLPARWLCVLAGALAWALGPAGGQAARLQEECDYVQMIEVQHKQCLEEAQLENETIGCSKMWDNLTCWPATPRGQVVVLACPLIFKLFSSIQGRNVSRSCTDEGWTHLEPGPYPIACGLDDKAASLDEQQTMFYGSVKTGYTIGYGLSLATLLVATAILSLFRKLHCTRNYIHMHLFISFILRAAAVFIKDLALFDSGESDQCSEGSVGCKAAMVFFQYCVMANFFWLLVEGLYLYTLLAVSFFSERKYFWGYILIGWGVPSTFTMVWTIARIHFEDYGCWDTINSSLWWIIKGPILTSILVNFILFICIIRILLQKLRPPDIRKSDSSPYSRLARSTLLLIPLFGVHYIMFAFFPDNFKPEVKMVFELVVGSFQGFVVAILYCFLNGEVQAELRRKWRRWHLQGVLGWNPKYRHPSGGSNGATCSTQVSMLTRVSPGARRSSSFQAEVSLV
Chain of Melanocyte-stimulating hormone receptor (Homo sapiens) (Q01726 whole entry, looked up): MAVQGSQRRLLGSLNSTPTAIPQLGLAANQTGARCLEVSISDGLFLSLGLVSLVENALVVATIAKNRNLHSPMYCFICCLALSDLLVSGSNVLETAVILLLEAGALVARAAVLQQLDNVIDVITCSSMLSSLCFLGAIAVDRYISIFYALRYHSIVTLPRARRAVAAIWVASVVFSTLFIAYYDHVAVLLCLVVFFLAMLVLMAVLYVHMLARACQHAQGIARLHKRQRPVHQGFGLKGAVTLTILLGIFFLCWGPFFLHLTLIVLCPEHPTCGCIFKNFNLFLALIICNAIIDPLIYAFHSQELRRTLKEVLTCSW
Chain of Cannabinoid receptor 1 (Homo sapiens) (P21554 whole entry): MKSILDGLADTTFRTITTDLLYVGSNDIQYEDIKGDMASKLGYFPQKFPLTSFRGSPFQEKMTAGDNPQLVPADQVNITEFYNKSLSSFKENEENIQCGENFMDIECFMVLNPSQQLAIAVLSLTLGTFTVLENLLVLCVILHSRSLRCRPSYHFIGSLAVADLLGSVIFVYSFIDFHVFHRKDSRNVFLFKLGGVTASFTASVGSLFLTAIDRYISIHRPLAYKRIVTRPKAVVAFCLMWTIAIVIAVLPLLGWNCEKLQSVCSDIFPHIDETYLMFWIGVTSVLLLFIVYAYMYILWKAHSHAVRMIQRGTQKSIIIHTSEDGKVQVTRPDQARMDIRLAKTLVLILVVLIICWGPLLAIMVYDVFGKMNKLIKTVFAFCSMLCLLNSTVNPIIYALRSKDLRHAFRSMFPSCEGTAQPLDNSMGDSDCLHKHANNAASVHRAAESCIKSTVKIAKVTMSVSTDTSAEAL
Chain of Substance-P receptor (Homo sapiens) (P25103 whole entry): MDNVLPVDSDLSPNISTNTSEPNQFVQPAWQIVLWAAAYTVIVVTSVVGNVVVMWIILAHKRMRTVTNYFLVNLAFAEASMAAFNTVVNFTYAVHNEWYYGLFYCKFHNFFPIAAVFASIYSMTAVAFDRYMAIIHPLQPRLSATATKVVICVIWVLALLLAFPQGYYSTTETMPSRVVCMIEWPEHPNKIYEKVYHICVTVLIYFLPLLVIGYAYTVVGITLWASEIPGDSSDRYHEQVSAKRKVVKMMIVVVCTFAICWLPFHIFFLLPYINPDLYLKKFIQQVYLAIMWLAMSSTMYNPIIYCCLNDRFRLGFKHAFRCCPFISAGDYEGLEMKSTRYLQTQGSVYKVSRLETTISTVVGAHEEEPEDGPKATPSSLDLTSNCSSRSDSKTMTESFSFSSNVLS
Chain of Corticotropin-releasing factor receptor 1 (Homo sapiens) (P34998 whole entry): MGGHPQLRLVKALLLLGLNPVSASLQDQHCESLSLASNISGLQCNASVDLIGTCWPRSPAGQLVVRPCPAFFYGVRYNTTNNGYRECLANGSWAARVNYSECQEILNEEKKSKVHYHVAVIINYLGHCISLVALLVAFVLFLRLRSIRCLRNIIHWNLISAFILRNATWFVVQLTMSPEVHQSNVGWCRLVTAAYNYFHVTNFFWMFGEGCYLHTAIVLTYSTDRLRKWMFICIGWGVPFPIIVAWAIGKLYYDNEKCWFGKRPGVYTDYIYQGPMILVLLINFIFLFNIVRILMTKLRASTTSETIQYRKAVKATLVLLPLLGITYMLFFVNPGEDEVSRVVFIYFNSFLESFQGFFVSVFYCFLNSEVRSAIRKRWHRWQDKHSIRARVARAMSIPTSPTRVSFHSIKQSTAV
Chain of D(1B) dopamine receptor (Homo sapiens) (P21918 whole entry): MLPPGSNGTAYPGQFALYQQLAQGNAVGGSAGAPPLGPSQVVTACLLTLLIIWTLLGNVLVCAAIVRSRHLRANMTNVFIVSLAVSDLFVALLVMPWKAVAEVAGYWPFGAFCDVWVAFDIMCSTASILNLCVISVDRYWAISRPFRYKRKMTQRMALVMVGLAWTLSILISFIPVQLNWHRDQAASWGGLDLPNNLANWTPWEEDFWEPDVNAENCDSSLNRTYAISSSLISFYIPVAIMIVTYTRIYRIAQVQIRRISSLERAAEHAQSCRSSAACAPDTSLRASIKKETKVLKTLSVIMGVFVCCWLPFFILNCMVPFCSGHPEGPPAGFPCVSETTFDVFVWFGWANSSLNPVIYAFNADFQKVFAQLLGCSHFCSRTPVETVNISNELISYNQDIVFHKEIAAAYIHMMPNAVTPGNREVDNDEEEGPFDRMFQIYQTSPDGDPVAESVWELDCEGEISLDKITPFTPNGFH

`CCc1cccc(CC)c1Cc1ncc[nH]1` gave an inhibition [1] of 5%, an inhibition [2] of 4% and a Ki [3] of 1300 nM. For the same molecule, the inhibition [4] was 19%, the inhibition [5] was 73% and the inhibition at 10 µM [6] was 0%. It also gave an inhibition [7] of -4%, an inhibition [8] of 8% and an inhibition [9] of 96%. For the same molecule, the inhibition [10] was -1%, the inhibition [11] was 4% and the inhibition [12] was 23%. The inhibition [13] was 1%, the inhibition [14] was 21% and the inhibition [15] was 10%. It also gave an inhibition [16] of 1%, an inhibition [17] of 11% and an inhibition [18] of 2%. For the same molecule, the inhibition [19] was -5%, the inhibition [20] was 17% and the inhibition [21] was 2%. The inhibition [22] was 4%, the inhibition [23] was 12% and the inhibition [24] was 22%. It also gave an inhibition [25] of 1%, an inhibition [26] of 22% and an inhibition [27] of 1%. It also gave an inhibition [28] of 1%, an inhibition [29] of 31% and an inhibition [30] of 45%. For the same molecule, the half-life [31] was 294 min, the inhibition [32] was -8% and the inhibition [33] was 5%. It also gave an inhibition [34] of 36%.
